The NIST ThermoML archive (doi:10.1021/je101012n)

Test: mn = molality of the nth substance listed, in mol/kg
Conditions: 101 kPa, Liquid, Alternating current cell with electrodes

O=[N+]([O-])[O-].O=[N+]([O-])[O-].O=[N+]([O-])[O-].[Al+3] [aluminum trinitrate] + O
electrical conductivity [S/m]
Conditions	278.1 K	283.1 K	298.15 K	308.15 K	318.15 K	343.15 K	363.15 K
m1 = 8.8e-05	–	–	–	–	–	0.09049	0.1042
m1 = 0.000883	0.05671	0.06384	0.08484	0.09898	0.1135	0.1533	0.1872
m1 = 0.00871	0.2168	0.2457	0.3424	0.411	0.4827	0.6932	0.8941
m1 = 0.0881	1.551	1.706	2.378	2.873	3.387	4.867	5.923
m1 = 0.158	2.511	2.826	3.913	4.788	5.595	7.689	9.698

Cl.N [ammonium chloride (NH4Cl)] + O
electrical conductivity [S/m]
Conditions	278.15 K	283.15 K	298.15 K	308.15 K	318.15 K	343.15 K	363.15 K
m1 = 0.000977	0.008892	0.01017	0.01441	0.01738	0.02024	0.0287	0.03591
m1 = 0.00965	0.0856	0.09786	0.1381	0.1671	0.1938	0.2731	0.3363
m1 = 0.09765	0.7999	0.9148	1.276	1.545	1.801	2.535	3.142
m1 = 0.4735	3.542	4.027	5.525	6.577	7.691	10.75	13.26
m1 = 1.034	7.301	8.293	11.12	13.13	15.36	21.55	25.35

[Ba+2].[Cl-].[Cl-] [barium chloride] + O
electrical conductivity [S/m]
Conditions	278.15 K	283.15 K	298.15 K	308.15 K	318.15 K	343.15 K	363.15 K
m1 = 9.2e-05	0.001632	0.00188	0.002597	0.003085	0.003626	0.005187	0.00644
m1 = 0.0011	0.01799	0.0206	0.02897	0.03508	0.04141	0.05911	0.07372
m1 = 0.00896	0.1386	0.1585	0.2229	0.2681	0.3161	0.4493	0.5593
m1 = 0.1029	1.366	1.553	2.167	2.588	3.034	4.247	4.814
m1 = 0.31	3.657	4.127	5.589	6.794	7.859	10.32	12.51

[Ca+2].[Cl-].[Cl-] [calcium chloride] + O
electrical conductivity [S/m]
Conditions	278.15 K	283.15 K	298.15 K	308.15 K	318.15 K	343.15 K	363.15 K
m1 = 7.6e-05	0.001256	0.001432	0.001998	0.002384	0.002814	0.004073	0.00517
m1 = 0.000755	0.01195	0.01369	0.01945	0.02351	0.02784	0.03992	0.05001
m1 = 0.00755	0.1103	0.1263	0.1792	0.216	0.2547	0.3636	0.4547
m1 = 0.0755	0.9331	1.062	1.496	1.793	2.11	2.982	3.694
m1 = 0.3773	4.179	4.73	6.531	7.792	9.092	12.66	15.58

O=S(=O)([O-])[O-].[Ca+2] [calcium sulfate] + O
electrical conductivity [S/m]
Conditions	278.15 K	283.15 K	298.15 K	308.15 K	318.15 K	343.15 K	363.15 K
m1 = 7.6e-05	0.00123	0.001409	0.001963	0.002529	0.003011	0.004223	0.00536
m1 = 0.00102	0.01397	0.01601	0.02275	0.02808	0.0325	0.04537	0.05546
m1 = 0.01245	0.1154	0.1331	0.185	0.2255	0.2573	0.3419	0.3973

[Cl-].[Cs+] [cesium chloride] + O
electrical conductivity [S/m]
Conditions	278.15 K	283.15 K	298.15 K	308.15 K	318.15 K	343.15 K	363.15 K
m1 = 0.000106	0.001018	0.001151	0.001597	0.001917	0.002242	0.003135	0.004007
m1 = 0.00101	0.009529	0.01089	0.0151	0.01817	0.02103	0.0293	0.03658
m1 = 0.01058	0.09738	0.1107	0.1539	0.185	0.2142	0.2972	0.3702
m1 = 0.1009	0.8548	0.9735	1.346	1.614	1.859	2.604	3.107
m1 = 0.4763	3.754	4.256	5.762	6.816	7.917	11.01	13.23
m1 = 1.09	8.303	9.355	12.29	14.25	16.55	22.98	26.87

O=S(=O)([O-])[O-].[Cs+].[Cs+] [cesium sulfate] + O
electrical conductivity [S/m]
Conditions	278.15 K	283.15 K	298.15 K	308.15 K	318.15 K	343.15 K	363.15 K
m1 = 0.000101	0.001962	0.002237	0.003069	0.003625	0.004233	0.006348	0.0078
m1 = 0.00105	0.01932	0.02195	0.0306	0.03666	0.04304	0.06181	0.07641
m1 = 0.01021	0.1676	0.1906	0.2654	0.3173	0.3716	0.5216	0.6438
m1 = 0.1047	1.358	1.539	2.124	2.529	2.958	4.094	5.022
m1 = 0.1836	2.24	2.528	3.468	4.119	4.792	6.59	8
m1 = 0.3588	4.083	4.58	6.204	7.32	8.463	11.58	13.73

O=[N+]([O-])[O-].O=[N+]([O-])[O-].[Cu+2] [copper dinitrate] + O
electrical conductivity [S/m]
Conditions	278.1 K	283.1 K	298.15 K	308.15 K	318.15 K	343.15 K	363.15 K
m1 = 0.0001	0.01101	0.01227	–	–	–	0.02684	0.0318
m1 = 0.0011	0.02486	0.02823	0.0388	0.04633	0.05303	0.07303	0.08992
m1 = 0.01032	0.1433	0.1641	0.2308	0.2795	0.3256	0.4628	0.5792
m1 = 0.1108	1.207	1.382	1.935	2.333	2.746	3.918	4.838
m1 = 0.3459	3.219	3.68	5.093	6.092	7.235	10.34	12.57
